Assay results taken from the supplement of paper PMC8633005.

What was measured:
Assay in all cases: drug sensitivity score (DSS) (DSS (unitless, 0-50 scale)); higher = more sensitive (stronger viability inhibition); extreme values may be limits of the assay
Conditions in all cases: 72 h; culture: 2D
[1] = test system: WM852
Method in brief: (§1)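 Melanoma cell lines and patient-derived melanoma cultures at 1000–1500 cells per well were exposed in 2D, in 384-well plates, to a 527-compound oncology library at five concentrations spanning a 10,000-fold range for 72 h at 37 °C. CellTiter-Glo luminescence then measured viability. From dose-response curves fitted in the in-house Breeze software, a drug sensitivity score, a modified area-under-curve measure, was obtained.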

[2] = test system: FM-MEL-3
Method in brief: as §1

[3] = test system: Bowes
Method in brief: as §1

[4] = test system: FM-MEL-6
Method in brief: as §1

[5] = test system: SK-MEL-28
Method in brief: as §1

[6] = test system: SK-MEL-2
Method in brief: as §1

[7] = test system: FM-MEL-2
Method in brief: as §1

[8] = test system: WM165
Method in brief: as §1

SMILES | drug sensitivity score [1] | drug sensitivity score [2] | drug sensitivity score [3] | drug sensitivity score [4] | drug sensitivity score [5] | drug sensitivity score [6] | drug sensitivity score [7] | drug sensitivity score [8]
CC(C)(O)CNc1nc(Nc2ccnc(C(F)(F)F)c2)nc(-c2cccc(C(F)(F)F)n2)n1 [Enasidenib] | 0 | 0 | 0 | 0 | 0 | 1.9 | 3.1 | 0
COC(=O)N[C@@H](C)CNc1nccc(-c2cn(C(C)C)nc2-c2cc(Cl)cc(NS(C)(=O)=O)c2F)n1 [Encorafenib] | 1.4 | 1.9 | 0.5 | 0 | 19.6 | 1.1 | 1.3 | 19.2
C[C@@H]1CN(C(=O)c2ccc(NC(=O)c3cc(O[C@H](C)c4c(Cl)ccc(F)c4Cl)c(N)nn3)cc2)C[C@H](C)N1 [Ensartinib] | 0.4 | 2.6 | 1.6 | 1.5 | 0 | 0 | 0.5 | 0.7
Nc1ccccc1NC(=O)c1ccc(CNC(=O)OCc2cccnc2)cc1 [Entinostat] | 0.1 | 6.6 | 1.8 | 8.2 | 8.7 | 7.9 | 4.5 | 11.4
c1cn2cc(-c3ccc4cn[nH]c4c3)nc(Nc3ccc(N4CCOCC4)cc3)c2n1 [Entospletinib] | 0 | 0 | 0 | 0 | 0 | 0 | 6.7 | 0
CN1CCN(c2ccc(C(=O)Nc3n[nH]c4ccc(Cc5cc(F)cc(F)c5)cc34)c(NC3CCOCC3)c2)CC1 [Entrectinib] | 0 | 0 | 0 | 0 | 0 | 0 | 0 | 0
CNC(=O)c1ccc(N2C(=S)N(c3ccc(C#N)c(C(F)(F)F)c3)C(=O)C2(C)C)cc1F [Enzalutamide] | 0.9 | 0.3 | 0.1 | 0 | 0 | 0 | 0.2 | 0
Cn1cc(C2=C(c3cn(C4CCN(Cc5ccccn5)CC4)c4ccccc34)C(=O)NC2=O)c2ccccc21 [Enzastaurin] | 2.1 | 3.7 | 0 | 0 | 0 | 0.2 | 1.7 | 0
NS(=O)(=O)NCCNc1nonc1/C(=N/O)Nc1ccc(F)c(Br)c1 [Epacadostat] | 0.7 | 1 | 0 | 0.5 | 0 | 0 | 0.5 | 0
COc1cccc2c1C(=O)c1c(O)c3c(c(O)c1C2=O)C[C@@](O)(C(=O)CO)C[C@@H]3O[C@H]1C[C@H](N)[C@@H](O)[C@H](C)O1 [Epirubicin] | 4.6 | 7.6 | 4 | 8.6 | 7.4 | 5.3 | 6 | 14.3
CCOc1ccccc1-n1c(C(C)N2CCN(C(=O)COc3ccc(Cl)cc3)CC2)nc2ccccc2c1=O (configuration not stated) [Erastin] | 12 | 5.8 | 6.2 | 0 | 0 | 1.3 | 7.6 | 10.8
COc1cc(OC)cc(N(CCNC(C)C)c2ccc3ncc(-c4cnn(C)c4)nc3c2)c1 [Erdafitinib] | 0.8 | 0 | 2.4 | 0 | 0 | 0 | 0 | 0
C=C1C[C@@H]2CC[C@@]34C[C@H]5O[C@H]6[C@@H](O3)[C@H]3O[C@H](CC[C@@H]3O[C@H]6[C@H]5O4)CC(=O)C[C@@H]3[C@@H](OC)[C@@H](C[C@H](O)CN)O[C@H]3C[C@H]3O[C@@H](CC[C@@H]1O2)C[C@@H](C)C3=C [Eribulin] | 22.8 | 9.4 | 23.6 | 18.5 | 11.2 | 20.4 | 4.8 | 22.5
C#Cc1cccc(Nc2ncnc3cc(OCCOC)c(OCCOC)cc23)c1 [Erlotinib] | 2.5 | 3.5 | 1.8 | 1.9 | 1.1 | 0 | 4.4 | 3.9
COc1cc([C@@H]2c3cc4c(cc3[C@@H](O[C@@H]3O[C@@H]5CO[C@@H](C)O[C@H]5[C@H](O)[C@H]3O)[C@H]3COC(=O)[C@H]23)OCO4)cc(OC)c1O [Etoposide] | 0.4 | 4 | 2.7 | 5.7 | 5.9 | 2.6 | 2.9 | 19.1
CO[C@H]1C[C@@H]2CC[C@@H](C)[C@@](O)(O2)C(=O)C(=O)N2CCCC[C@H]2C(=O)O[C@H]([C@H](C)C[C@@H]2CC[C@@H](OCCO)[C@H](OC)C2)CC(=O)[C@H](C)/C=C(\C)[C@@H](O)[C@@H](OC)C(=O)[C@H](C)C[C@H](C)/C=C/C=C/C=C/1C [Everolimus] | 0 | 4.7 | 0 | 3.6 | 3 | 0 | 2.2 | 4.9
C=C1C[C@@H]2[C@H](CC[C@]3(C)C(=O)CC[C@@H]23)[C@@]2(C)C=CC(=O)C=C12 [Exemestane] | 0.3 | 0 | 1.4 | 0 | 0 | 0 | 0 | 0.2
CCn1c(=O)c(-c2ccc(Cl)cc2Cl)cc2cnc(Nc3ccc(N4CCNCC4)c(F)c3)nc21 [FRAX486] | 1.4 | 0 | 9.7 | 1.9 | 3.2 | 0.5 | 0 | 7.6
Cc1cnc(Nc2ccc(OCCN3CCCC3)cc2)nc1Nc1cccc(S(=O)(=O)NC(C)(C)C)c1 [Fedratinib] | 6.8 | 6.7 | 10.9 | 3.1 | 3 | 4.5 | 3.6 | 9.1
